SMILES strings stand for the structures.

This series can be described thus: method code SF-HPLC, from DOI: 10.1080/01483919108049310. As to conditions: pH 8.5.
In general, logD refers to the decadic logarithm of the distribution of all forms, ionised or not, between an organic phase and buffer at a given pH. Turning to `Cc1nn(-c2ccccc2)c(Nc2ccc([N+](=O)[O-])cc2)c1[N+](=O)[O-]`, the logD was 2.78. For the compound `Cc1ccccc1Nc1c([N+](=O)[O-])c(C)nn1-c1ccccc1`, the logD stood at 3.8. As for `Cc1nn(-c2ccccc2)c(Nc2ccccc2)c1[N+](=O)[O-]`, the logD worked out at 2.98. `Cc1cccc(Nc2c([N+](=O)[O-])c(C)nn2-c2ccccc2)c1`: the log distribution coefficient (logD) worked out at 3.25. With `Cc1nn(-c2ccccc2)c(Nc2ccc(Cl)cn2)c1[N+](=O)[O-]`, the logD worked out at 3.74. In turn, `Cc1ccc(Nc2c([N+](=O)[O-])c(C)nn2-c2ccccc2)cc1` displayed a logD of 3.43. With `Cc1nn(-c2ccccc2)c(Nc2ccc(C(F)(F)F)cc2)c1[N+](=O)[O-]`, the logD came out at 3.89. The figure for `Cc1nn(-c2ccccc2)c(NN=Cc2ccc3c(c2[N+](=O)[O-])OCO3)c1[N+](=O)[O-]` is 3.39.
